In patent publication US8247211B2, “Glycopeptide antibiotics” (American Cyanamid Company, priority 2001, dated 2012):
Converted amounts (≈) assume the structure as drawn.

Columns and labels:
[1] = type: in vivo; conditions: mice, 20 mg/kg intravenously daily for 9 days, serum on day 10
Method: 20-day-old CD-1 mice were divided into a vehicle control group (5 mice) and a treatment group (5 mice). Samples of glycopeptide antibiotics were administered at 20 mg/kg intravenously daily for 9 days. Animals were necropsied on day 10 Sera were analyzed for BUN (blood urea nitrogen), creatinine, AST (aspartic aminotransferase), and ALT (alanine aminotransferase) by routine, standard, automated methods using an Hitachi 747 chemistry analyzer.

[2] = Anatomic pathology (heart and kidney histopathology) in mice; type: in vivo, CD-1 mice; conditions: 20 mg/kg intravenously daily for 9 days, microscopic histopathology on day 10
Summary of the method: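 Juvenile CD-1 mice (20 days old; 5 vehicle, 5 treated) received glycopeptide antibiotic 20 mg/kg i.v. daily for 9 days. Necropsied tissues formalin-fixed, paraffin-embedded, H&E stained and examined microscopically; findings graded slight to severe versus controls.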

Enterococcus sp. = test: In vitro antibacterial evaluation: minimum inhibitory concentration (MIC), broth dilution method; type: cell-based
Summary of the method: (§1)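 First, organisms are seeded at 5×10^5 CFU/mL into Muller-Hinton II […]. Next, antibiotic is applied across 64-0.06 μg/mL by broth dilution (NCCLS M7-A2). Finally, the lowest inhibitory concentration is recorded as MIC.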

Escherichia coli = test: as above; type: cell-based; conditions: strain GC 4560
Summary of the method: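 NCCLS M7-A2 broth dilution with Mueller-Hinton II, testing 64-0.06 μg/mL antibiotic against 5×10^5 CFU/mL inocula. Test strains include recent methicillin-, penicillin- or vancomycin-resistant clinical isolates. MIC is the lowest concentration preventing growth.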

Streptococcus sp. = test: as above; type: cell-based
Summary of the method: as §1

Staphylococcus sp. = test: as above; type: cell-based; conditions: broth dilution, 18 hours at 35° C.
Summary of the method: as §1

[3] = test system: Staphylococcus aureus-SMITH (GC 4543); test: Acute lethal infection in mice (ED50); type: in vivo; conditions: female CD-1 mice, intraperitoneal challenge, intravenous dose 30 min. after infection, 7 day survival ratios
Summary of the method: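 Female CD-1 mice challenged intraperitoneally with a bacterial dose lethal to untreated controls within 24-48 h. Compound given intravenously in saline or 5% dextrose 30 min post-infection, five mice per dose; ED50 from 7-day survival pooled over 3 tests.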

With `CC(c1ccccc1)C1NC(=O)CNC(=O)C(CO)NC(=O)C(C(O)C2CN(Cc3ccc(-c4ccccc4)cc3)C(=N)N2C2OC(CO)C(O)C(O)C2O)NC(=O)C(C(O)C2CNC(=NCc3ccc(-c4ccccc4)cc3)N2Cc2ccc(-c3ccccc3)cc2)NC(=O)C(Cc2ccc(OC3OC(CO)C(OC4OC(CO)C(O)C(O)C4O)C(O)C3O)cc2)NC1=O` (stereo not drawn) [Example 66] the “Clinical Chemistry (Day 10) % of Control, ALT” value [1] was 182%, the “Clinical Chemistry (Day 10) % of Control, AST” value [1] was 147% and the “Anatomical Pathology (Day 10), Heart” value [2] was 0. For the same compound, the “Anatomical Pathology (Day 10), Kidney” value [2] was 0, the “MIC Enterococcus avium (GC 4558)” value (Enterococcus sp.; Enterococcus avium (GC 4558), broth dilution, 18 hours at 35° C.) was 4 mg/L (≈ 2.23 µM) and the “MIC Enterococcus faecalis (ATCC 29212)” value (Enterococcus sp.; Enterococcus faecalis (ATCC 29212), broth dilution, 18 hours at 35° C.) was 16 mg/L (≈ 8.92 µM). The “MIC Enterococcus faecalis (GC 2242)” value (Enterococcus sp.; Enterococcus faecalis (GC 2242), broth dilution, 18 hours at 35° C.) was 16 mg/L (≈ 8.92 µM), the “MIC Enterococcus faecalis (GC 2691)” value (Enterococcus sp.; Enterococcus faecalis (GC 2691), broth dilution, 18 hours at 35° C.) was 32 mg/L (≈ 17.8 µM) and the “MIC Enterococcus faecalis (GC 3059)” value (Enterococcus sp.; Enterococcus faecalis (GC 3059), broth dilution, 18 hours at 35° C.) was 32 mg/L (≈ 17.8 µM). The “MIC Enterococcus faecalis (GC 4552)” value (Enterococcus sp.; Enterococcus faecalis (GC 4552), broth dilution, 18 hours at 35° C.) was 32 mg/L (≈ 17.8 µM), the “MIC Enterococcus faecalis (GC 4553)” value (Enterococcus sp.; Enterococcus faecalis (GC 4553), broth dilution, 18 hours at 35° C.) was 8 mg/L (≈ 4.46 µM) and the “MIC Enterococcus faecalis (GC 4554)” value (Enterococcus sp.; Enterococcus faecalis (GC 4554), broth dilution, 18 hours at 35° C.) was 64 mg/L (≈ 35.7 µM). The “MIC Enterococcus faecalis (GC 6189)” value (Enterococcus sp.; Enterococcus faecalis (GC 6189), broth dilution, 18 hours at 35° C.) was 32 mg/L (≈ 17.8 µM), the “MIC Enterococcus faecium (GC 2243)” value (Enterococcus sp.; Enterococcus faecium (GC 2243), broth dilution, 18 hours at 35° C.) was 8 mg/L (≈ 4.46 µM) and the “MIC Enterococcus faecium (GC 4556)” value (Enterococcus sp.; Enterococcus faecium (GC 4556), broth dilution, 18 hours at 35° C.) was 32 mg/L (≈ 17.8 µM). The “MIC Enterococcus faecium (GC 4557)” value (Enterococcus sp.; Enterococcus faecium (GC 4557), broth dilution, 18 hours at 35° C.) was 4 mg/L (≈ 2.23 µM), the “MIC Enterococcus faecalis (ATCC 29212)” value (Enterococcus sp.; strain ATCC 29212) was 16 mg/L (≈ 8.92 µM) and the “MIC Enterococcus faecalis (GC 2242)” value (Enterococcus sp.; strain GC 2242) was 16 mg/L (≈ 8.92 µM). The “MIC Enterococcus faecium (GC 2243)” value (Enterococcus sp.; strain GC 2243) was 8 mg/L (≈ 4.46 µM), the “MIC Enterococcus faecalis (GC 2691)” value (Enterococcus sp.; strain GC 2691) was 32 mg/L (≈ 17.8 µM) and the “MIC Enterococcus faecalis (GC 3059)” value (Enterococcus sp.; strain GC 3059) was 32 mg/L (≈ 17.8 µM). The “MIC Enterococcus faecalis (GC 4552)” value (Enterococcus sp.; strain GC 4552) was 32 mg/L (≈ 17.8 µM), the “MIC Enterococcus faecalis (GC 4553)” value (Enterococcus sp.; strain GC 4553) was 8 mg/L (≈ 4.46 µM) and the “MIC Enterococcus faecalis (GC 4554)” value (Enterococcus sp.; strain GC 4554) was 64 mg/L (≈ 35.7 µM). For the same compound, the “MIC Enterococcus faecium (GC 4556)” value (Enterococcus sp.; strain GC 4556) was 32 mg/L (≈ 17.8 µM), the “MIC Enterococcus faecium (GC 4557)” value (Enterococcus sp.; strain GC 4557) was 4 mg/L (≈ 2.23 µM) and the “MIC Enterococcus avium (GC 4558)” value (Enterococcus sp.; strain GC 4558) was 4 mg/L (≈ 2.23 µM). For the same compound, the “MIC Enterococcus faecalis (GC 6189)” value (Enterococcus sp.; strain GC 6189) was 32 mg/L (≈ 17.8 µM), the “MIC Escherichia coli (GC 4560)” value (Escherichia coli) was 4 mg/L (≈ 2.23 µM) and the “MIC Streptococcus agalactiae (GC 4564)” value (Streptococcus sp.; Streptococcus agalactiae (GC 4564), broth dilution, 18 hours at 35° C.) was 32 mg/L (≈ 17.8 µM). For the same compound, the “MIC Streptococcus pneumoniae (ATCC 6301)” value (Streptococcus sp.; Streptococcus pneumoniae (ATCC 6301), broth dilution, 18 hours at 35° C.) was 32 mg/L (≈ 17.8 µM), the “MIC Streptococcus pneumoniae (GC 1894)” value (Streptococcus sp.; Streptococcus pneumoniae (GC 1894), broth dilution, 18 hours at 35° C.) was 32 mg/L (≈ 17.8 µM) and the “MIC Streptococcus pneumoniae (GC 4565)” value (Streptococcus sp.; Streptococcus pneumoniae (GC 4565), broth dilution, 18 hours at 35° C.) was 64 mg/L (≈ 35.7 µM). For the same compound, the “MIC Streptococcus pyogenes (GC 4563)” value (Streptococcus sp.; Streptococcus pyogenes (GC 4563), broth dilution, 18 hours at 35° C.) was 16 mg/L (≈ 8.92 µM), the “MIC Streptococcus pneumoniae (ATCC 6301)” value (Streptococcus sp.; strain ATCC 6301) was 32 mg/L (≈ 17.8 µM) and the “MIC Streptococcus pneumoniae (GC 1894)” value (Streptococcus sp.; strain GC 1894) was 32 mg/L (≈ 17.8 µM). For the same compound, the “MIC Streptococcus pyogenes (GC 4563)” value (Streptococcus sp.; strain GC 4563) was 16 mg/L (≈ 8.92 µM), the “MIC Streptococcus agalactiae (GC 4564)” value (Streptococcus sp.; strain GC 4564) was 32 mg/L (≈ 17.8 µM) and the “MIC Streptococcus pneumoniae (GC 4565)” value (Streptococcus sp.; strain GC 4565) was 64 mg/L (≈ 35.7 µM). The “MIC Coagulase Negative Staphylococcus (GC 4547)” value (Staphylococcus sp.) was 4 mg/L (≈ 2.23 µM), the “MIC Coagulase Negative Staphylococcus (GC 4548)” value (Staphylococcus sp.) was 8 mg/L (≈ 4.46 µM) and the “MIC Coagulase Negative Staphylococcus (GC 4549)” value (Staphylococcus sp.) was 4 mg/L (≈ 2.23 µM). The “MIC Coagulase Negative Staphylococcus (GC 4551)” value (Staphylococcus sp.) was 8 mg/L (≈ 4.46 µM), the “MIC Coagulase Negative Staphylococcus (GC 6257)” value (Staphylococcus sp.) was 4 mg/L (≈ 2.23 µM) and the “MIC Staphylococcus aureus (ATCC 29213)” value (Staphylococcus sp.) was 8 mg/L (≈ 4.46 µM). The “MIC Staphylococcus aureus (GC 1131)” value (Staphylococcus sp.) was 16 mg/L (≈ 8.92 µM), the “MIC Staphylococcus aureus (GC 3051)” value (Staphylococcus sp.) was 8 mg/L (≈ 4.46 µM) and the “MIC Staphylococcus aureus (GC 3053)” value (Staphylococcus sp.) was 8 mg/L (≈ 4.46 µM). The “MIC Staphylococcus aureus (GC 4541)” value (Staphylococcus sp.) was 8 mg/L (≈ 4.46 µM), the “MIC Staphylococcus aureus (GC 4542)” value (Staphylococcus sp.) was 8 mg/L (≈ 4.46 µM) and the “MIC Staphylococcus aureus (GC 4544)” value (Staphylococcus sp.) was 8 mg/L (≈ 4.46 µM). For the same compound, the “MIC Staphylococcus aureus (GC 4545)” value (Staphylococcus sp.) was 4 mg/L (≈ 2.23 µM), the “MIC Staphylococcus aureus SMITH (GC 4543)” value (Staphylococcus sp.) was 8 mg/L (≈ 4.46 µM) and the “MIC Staphylococcus haemolyticus (GC 4546)” value (Staphylococcus sp.) was 4 mg/L (≈ 2.23 µM). The “MIC Staphylococcus aureus (ATCC 29213)” value (Staphylococcus sp.; strain ATCC 29213) was 8 mg/L (≈ 4.46 µM), the “MIC Staphylococcus aureus (GC 1131)” value (Staphylococcus sp.; strain GC 1131) was 16 mg/L (≈ 8.92 µM) and the “MIC Staphylococcus aureus (GC 3051)” value (Staphylococcus sp.; strain GC 3051) was 8 mg/L (≈ 4.46 µM). The “MIC Staphylococcus aureus (GC 3053)” value (Staphylococcus sp.; strain GC 3053) was 8 mg/L (≈ 4.46 µM), the “MIC Staphylococcus aureus (GC 4541)” value (Staphylococcus sp.; strain GC 4541) was 8 mg/L (≈ 4.46 µM) and the “MIC Staphylococcus aureus (GC 4542)” value (Staphylococcus sp.; strain GC 4542) was 8 mg/L (≈ 4.46 µM). The “MIC Staphylococcus aureus (GC 4544)” value (Staphylococcus sp.; strain GC 4544) was 8 mg/L (≈ 4.46 µM), the “MIC Staphylococcus aureus (GC 4545)” value (Staphylococcus sp.; strain GC 4545) was 4 mg/L (≈ 2.23 µM) and the “MIC Coagulase Negative Staphylococcus (GC 4547)” value (Staphylococcus sp.; strain GC 4547) was 4 mg/L (≈ 2.23 µM). For the same compound, the “MIC Coagulase Negative Staphylococcus (GC 4548)” value (Staphylococcus sp.; strain GC 4548) was 8 mg/L (≈ 4.46 µM), the “MIC Coagulase Negative Staphylococcus (GC 4549)” value (Staphylococcus sp.; strain GC 4549) was 4 mg/L (≈ 2.23 µM) and the “MIC Coagulase Negative Staphylococcus (GC 4551)” value (Staphylococcus sp.; strain GC 4551) was 8 mg/L (≈ 4.46 µM). The “MIC Coagulase Negative Staphylococcus (GC 6257)” value (Staphylococcus sp.; strain GC 6257) was 4 mg/L (≈ 2.23 µM), the “MIC Staphylococcus aureus-SMITH (GC 4543)” value (Staphylococcus sp.; strain SMITH GC 4543) was 8 mg/L (≈ 4.46 µM) and the “median effective dose (ED50), Staphylococcus aureus-SMITH (GC 4543)” value [3] was over 8.
